The numbers were not newly measured in US20240100008A1, “ADMINISTRATION OF GLYCEROL TRIBENZOATE AND GLYCEROL PHENYLBUTYRATE FOR TREATMENT OF NEURODEGENERATIVE AND UREA CYCLE DISORDERS” (Rush University Medical Center, priority 2020, published 2024), which cites them from elsewhere.

Test in series [1]: not given
This is another data set of the same source.

In series [2] the test system is multiple sclerosis in mice.
The subject of series [3] is DJ-1. As to conditions: astrocytes and neurons.
In series [4] the test system is BDNF. The settings on record: brain cells.
The subject of series [5] is NT-3. The settings on record: brain cells.
Series [6] concerns animal model of Alzheimer's disease.

As to `O=C(CCCc1ccccc1)OCC(COC(=O)CCCc1ccccc1)OC(=O)CCCc1ccccc1` [glycerol phenylbutyrate, Glycerol phenylbutyrate], the side effect entry (in vivo, po) is “diarrhea is a common side effect”.

With `O=C(OCC(COC(=O)c1ccccc1)OC(=O)c1ccccc1)c1ccccc1` [glyceryl (i.e. glycerol) tribenzoate, glycerol tribenzoate], in series [1] (in vivo), the “release form of sodium benzoate” value is “sustained-release and a slow-release form”.

On to `O=C([O-])c1ccccc1.[Na+]` [sodium benzoate, Sodium benzoate], for which the “disease process of multiple sclerosis” value in series [2] was “suppresses”. The DJ-1 protein level entry in series [3] is listed as “upregulates”. In addition, the “production of BDNF” value in series [4] is on record as “increases”. Also, the “production of NT-3” value in series [5] was “increases”. In series [6], the memory and learning result was “protecting memory and learning”; the oxidative stress entry is reported as “attenuating oxidative stress”. In addition, the “excretion from the body” value in series [1] (through urine) was “quickly excreted”. Further, under “patients, high dose sodium benzoate several times a day”, the side effects entry was “feel drowsy and also suffer from nausea, vomiting and headache”.
